Results reported in patent US8236346B2, “Method for reducing amyloid deposition, amyloid neurotoxicity, and microgliosis with (-)-nilvadipine enantiomer” (Alzheimer's Institute of America, Inc, priority 2007, dated 2012).

Key:
[1] = system: Aβ deposition (amyloid burden); test: Chronic administration of nilvadipine on Aβ deposition (amyloid burden), 4G8 immunostaining; assay type: in vivo, TgAPPsw mice
Description: The 4G8 immunostaining technique was chosen for determining the Aβ burden because of its robust signal and optimal results for quantitative analysis of Aβ deposition. Briefly, paraffin sections were subjected to immunohistochemistry as described previously (Nakagawa, Y et al., Exp. Neurol., 163:244-252, 2000). Sections were deparaffinized in xylene, hydrated in a series of ethanol and deionized water, and subjected to an antigen retrieval step by immersing sections in 88% formic acid for 60 min before immunohistochemistry for Aβ. Sections were washed in water, and endogenous peroxidases were quenched using a freshly prepared mixture of methanol (150 ml) plus hydrogen peroxide (33%, 30 ml). The avidin-biotin complex method was used according to the instructions of the vendor (Vector Laboratories, Burlingame, Calif.). Amyloid burden was assessed by determining the percentage of the brain region that stained positive for Aβ. Negative controls included the application of the same immunohistochemistry protocol to sections, except preimmune serum was applied instead of primary antibody.

CD45+ microglia = test: Chronic administration of nilvadipine on microglial activation, CD45 immunostaining; assay type: in vivo, TgAPPsw mice
Description: Briefly, immunohistochemistry for CD45, a specific marker of microglia, was conducted on the cryostat brain sections. CD45-positive microglial cells were immunolocalized by incubation with a mouse monoclonal antibody against CD45 (Chemicon International) overnight at 4° C., followed by application of a biotinylated rabbit anti-mouse secondary antibody for 30 minutes. Detection of CD45 was completed with diaminobenzidine chromogen substrate, which produces a brown cell surface stain on CD45-positive microglial cells.

[2] = system: N9 murine microglial cells; test: LPS-induced microglial activation, TNF-α production by ELISA; assay type: cell-based
Description: N9 murine microglial cells are well characterized scavenger murine microglial clones derived from embryonic mouse brain. The extent of microglial activation was determined by TNF-α production (pg/ml) measured by ELISA. […] Microglial cells in the presence of 1 μg/ml LPS produced about 820 pg/ml TNF-α, an […] from the control cells and nilvadipine-administered cells.

[3] = system: human neuronal progenitor cells (HNPC); test: Aβ neurotoxicity, LDH release; assay type: cell-based; conditions: 100 nM nilvadipine with 30 μM AgAβ, three days
Description: Cyclic AMP (1 mM) (Sigma) was added to the culture medium and the HNPC cells were incubated at 37° C. for 48 hours or more under serum free conditions. This medium allowed differentiation of the progenitors into cells of neuronal lineage, as was confirmed by the staining of most of the cells with antibodies against the microtubule-associated protein, MAP-2. Neurotoxicity was assessed by measuring the amount of lactic dehydrogenase (LDH; an intracellular enzyme found in all cells) released from the cells.

[4] = system: human glioblastoma cells transfected with APPsw; test: APP processing, Aβ1-40 production by ELISA; assay type: cell-based
[5] = system: 7W WT APP751 Chinese hamster ovary cells; test: Aβ1-40 and Aβ1-42 production by ELISA; assay type: cell-based; conditions: 24 hours treatment
Description: Production of Aβ1-40 and Aβ1-42 in the culture medium was measured by using a commercially available human Aβ1-40 ELISA (Biosource, CA) and commercially available human Aβ1-42 ELISA (Biosource, CA), respectively.

L-type calcium channels = L-type calcium channels (Rattus norvegicus, UniProt P22002); test: FPL64176 induced vasoconstriction in rat aortae; conditions: 100 nM, 2 min prior to 1 μM FPL64176
Aβ deposits = conditions: Lim et al., J. Neurosci. 2000; cited from earlier work

Chain of L-type calcium channels (P22002 whole entry): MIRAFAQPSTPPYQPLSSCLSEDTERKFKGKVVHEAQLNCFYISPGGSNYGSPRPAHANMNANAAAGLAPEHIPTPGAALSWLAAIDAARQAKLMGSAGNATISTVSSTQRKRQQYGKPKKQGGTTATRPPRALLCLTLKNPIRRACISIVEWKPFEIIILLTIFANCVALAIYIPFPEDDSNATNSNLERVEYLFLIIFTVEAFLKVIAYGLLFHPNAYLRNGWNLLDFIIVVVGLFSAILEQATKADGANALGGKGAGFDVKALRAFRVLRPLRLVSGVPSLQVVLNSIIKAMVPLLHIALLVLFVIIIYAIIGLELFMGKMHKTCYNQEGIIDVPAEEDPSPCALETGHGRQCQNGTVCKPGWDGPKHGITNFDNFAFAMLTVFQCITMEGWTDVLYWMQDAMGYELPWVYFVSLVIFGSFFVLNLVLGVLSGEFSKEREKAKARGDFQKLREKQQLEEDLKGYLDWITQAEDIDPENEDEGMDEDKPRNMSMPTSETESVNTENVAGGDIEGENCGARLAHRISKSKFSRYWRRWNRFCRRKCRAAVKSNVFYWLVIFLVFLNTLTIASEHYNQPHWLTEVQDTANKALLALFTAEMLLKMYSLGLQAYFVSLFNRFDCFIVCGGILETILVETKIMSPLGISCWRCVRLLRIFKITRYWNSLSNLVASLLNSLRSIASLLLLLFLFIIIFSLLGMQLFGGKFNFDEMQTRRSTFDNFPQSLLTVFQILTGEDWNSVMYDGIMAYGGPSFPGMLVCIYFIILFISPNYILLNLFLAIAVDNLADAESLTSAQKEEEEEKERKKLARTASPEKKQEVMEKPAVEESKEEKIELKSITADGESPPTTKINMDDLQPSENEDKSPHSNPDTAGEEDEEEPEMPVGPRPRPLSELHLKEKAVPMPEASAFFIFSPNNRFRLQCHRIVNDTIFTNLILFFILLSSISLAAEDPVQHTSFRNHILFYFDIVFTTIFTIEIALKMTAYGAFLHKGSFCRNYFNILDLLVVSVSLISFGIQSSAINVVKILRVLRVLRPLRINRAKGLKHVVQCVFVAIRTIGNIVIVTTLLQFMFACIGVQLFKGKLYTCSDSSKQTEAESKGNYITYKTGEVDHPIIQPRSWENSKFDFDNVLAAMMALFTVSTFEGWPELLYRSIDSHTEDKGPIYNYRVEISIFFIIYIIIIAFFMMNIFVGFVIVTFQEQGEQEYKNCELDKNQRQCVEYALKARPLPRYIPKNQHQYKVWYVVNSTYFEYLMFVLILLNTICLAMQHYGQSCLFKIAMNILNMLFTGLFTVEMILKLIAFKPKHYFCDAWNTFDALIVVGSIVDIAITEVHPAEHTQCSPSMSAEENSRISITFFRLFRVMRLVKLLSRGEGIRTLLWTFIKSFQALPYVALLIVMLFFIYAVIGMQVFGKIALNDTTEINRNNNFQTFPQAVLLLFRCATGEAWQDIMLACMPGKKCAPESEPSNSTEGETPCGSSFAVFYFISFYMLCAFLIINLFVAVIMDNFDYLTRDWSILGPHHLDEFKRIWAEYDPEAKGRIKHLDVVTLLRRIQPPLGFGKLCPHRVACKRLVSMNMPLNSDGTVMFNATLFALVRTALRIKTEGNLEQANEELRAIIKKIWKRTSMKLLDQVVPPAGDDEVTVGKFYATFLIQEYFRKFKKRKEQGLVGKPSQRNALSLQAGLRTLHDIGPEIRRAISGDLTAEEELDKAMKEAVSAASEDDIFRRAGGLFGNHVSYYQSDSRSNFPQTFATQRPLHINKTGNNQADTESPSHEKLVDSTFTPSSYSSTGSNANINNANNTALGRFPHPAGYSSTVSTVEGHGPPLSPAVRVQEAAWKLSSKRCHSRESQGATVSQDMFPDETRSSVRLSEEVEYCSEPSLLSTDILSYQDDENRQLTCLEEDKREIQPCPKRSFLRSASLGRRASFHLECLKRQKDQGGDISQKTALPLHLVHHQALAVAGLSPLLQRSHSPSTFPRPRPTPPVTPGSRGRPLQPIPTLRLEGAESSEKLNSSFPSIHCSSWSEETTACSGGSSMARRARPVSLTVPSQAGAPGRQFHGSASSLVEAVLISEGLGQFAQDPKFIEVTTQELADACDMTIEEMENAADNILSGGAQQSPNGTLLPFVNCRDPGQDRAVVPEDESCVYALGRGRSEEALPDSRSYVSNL
Chain of L-type calcium channels (P54290 25-944 partner limits assumed): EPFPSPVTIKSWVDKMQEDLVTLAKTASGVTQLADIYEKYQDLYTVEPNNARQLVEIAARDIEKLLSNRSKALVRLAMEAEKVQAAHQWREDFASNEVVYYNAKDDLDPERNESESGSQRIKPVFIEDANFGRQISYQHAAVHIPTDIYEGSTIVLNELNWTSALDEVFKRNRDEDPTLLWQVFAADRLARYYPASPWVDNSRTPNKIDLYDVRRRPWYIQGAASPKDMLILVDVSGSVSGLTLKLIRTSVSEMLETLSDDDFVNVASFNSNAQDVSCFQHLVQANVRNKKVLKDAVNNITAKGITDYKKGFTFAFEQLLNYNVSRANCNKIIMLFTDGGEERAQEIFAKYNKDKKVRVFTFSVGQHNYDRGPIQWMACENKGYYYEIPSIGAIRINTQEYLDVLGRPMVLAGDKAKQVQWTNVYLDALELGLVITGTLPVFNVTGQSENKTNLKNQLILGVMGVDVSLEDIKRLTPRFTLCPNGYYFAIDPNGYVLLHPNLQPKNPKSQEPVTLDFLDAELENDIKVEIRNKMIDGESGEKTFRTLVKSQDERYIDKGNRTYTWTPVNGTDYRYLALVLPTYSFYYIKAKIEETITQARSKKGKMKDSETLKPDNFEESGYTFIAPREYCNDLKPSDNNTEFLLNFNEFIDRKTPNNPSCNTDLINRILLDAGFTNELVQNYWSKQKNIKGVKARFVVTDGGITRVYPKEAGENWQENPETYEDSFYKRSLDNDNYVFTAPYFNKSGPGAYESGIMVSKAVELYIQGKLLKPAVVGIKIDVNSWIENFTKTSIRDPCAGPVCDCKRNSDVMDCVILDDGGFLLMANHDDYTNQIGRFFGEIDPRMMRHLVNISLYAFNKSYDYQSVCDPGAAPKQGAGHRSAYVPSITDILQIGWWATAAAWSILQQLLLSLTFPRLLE
Chain of L-type calcium channels (P54290 945-1091 partner limits assumed): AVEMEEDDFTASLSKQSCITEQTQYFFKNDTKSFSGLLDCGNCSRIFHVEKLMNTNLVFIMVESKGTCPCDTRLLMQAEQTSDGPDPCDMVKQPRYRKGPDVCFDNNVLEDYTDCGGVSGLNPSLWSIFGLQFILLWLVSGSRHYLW

COC(=O)C1=C(C#N)NC(C)=C(C(=O)OC(C)C)C1c1cccc([N+](=O)[O-])c1 (racemic) [nilvadipine, isopropyl-3-methyl-2-cyano-1,4-dihydro-6-methyl-4-(m-nitrophenyl)-3,5-pyridine-dicarboxylate]
reduction of Aβ burden compared to controls ([1]; CA1 region of the hippocampus): about 52%
reduction of Aβ burden compared to controls ([1]; CA2-CA3 region of the hippocampus): about 50%
reduction of Aβ burden compared to controls ([1]; motor cortex): about 58%
reduction of Aβ burden compared to controls ([1]; parietal cortex): about 65%
reduction of Aβ burden compared to controls ([1]; pyriform cortex): about 58%
reduction of Aβ burden compared to controls ([1]; visual cortex): about 62%
reduction of microglial activation compared to controls (CD45+ microglia; hippocampus): about 33%
reduction of microglial activation compared to controls (CD45+ microglia; motor cortex): about 27%
reduction of microglial activation compared to controls (CD45+ microglia; parietal cortex): about 43%
TNF-α production ([2]; 50 nM nilvadipine, no LPS): about 40 pg/ml
TNF-α production ([2]; 1 μg/ml LPS plus 50 nM nilvadipine, 24 hours): about 670 pg/ml
TNF-α production ([2]; 1 μg/ml LPS plus 500 nM nilvadipine, 24 hours): about 610 pg/ml
decrease of LDH release [3]: about 44%
reduction of Aβ1-40 production ([4]; 50 nM, 24 hours): about 9%
reduction of Aβ1-40 production ([4]; 50 nM, 48 hours): about 18%
reduction of Aβ1-40 production ([4]; 250 nM, 24 hours): about 15%
reduction of Aβ1-40 production ([4]; 250 nM, 48 hours): about 5%

COC(=O)C1=C(C#N)NC(C)=C(C(=O)OC(C)C)[C@H]1c1cccc([N+](=O)[O-])c1 [(+)-nilvadipine]
effect on Aβ1-40 production ([5]; dose response): dose dependently inhibit
effect on Aβ1-42 production ([5]; low dose): slightly stimulate
effect on FPL64176 induced vasoconstriction (L-type calcium channels): completely antagonizes

CC(C)Cc1ccc(C(C)C(=O)O)cc1 (stereo not drawn) [ibuprofen]
effect on Aβ deposits, astrocytosis and dystrophic neuritis (Aβ deposits): reduction in Aβ deposits, astrocytosis, and dystrophic neuritis
